Values after ≈ are worked out from the molar mass of the structure shown. Read-outs that look alike come from different tables or passages of the source.
Tests used:
[1] = molecular target: T1, catalytic domain of Usp9x (Usp9xCD) (Homo sapiens, UniProt Q93008); assay: Usp9xCD Ub-AMC enzyme assay; assay type: biochemical; conditions: 300 nM Usp9xCD, 30 min at 37° C. with inhibitor, 1.5 μM Ub-AMC
T1 construct: DNA corresponding to amino acids 1553-1960 of human Usp9x; His6-Smt3 (SUMO) fusion tag, ULP1-cleavable (N, cleaved yes); made in house; host or cells: E. coli
T1 sequence (Q93008 1553-1960): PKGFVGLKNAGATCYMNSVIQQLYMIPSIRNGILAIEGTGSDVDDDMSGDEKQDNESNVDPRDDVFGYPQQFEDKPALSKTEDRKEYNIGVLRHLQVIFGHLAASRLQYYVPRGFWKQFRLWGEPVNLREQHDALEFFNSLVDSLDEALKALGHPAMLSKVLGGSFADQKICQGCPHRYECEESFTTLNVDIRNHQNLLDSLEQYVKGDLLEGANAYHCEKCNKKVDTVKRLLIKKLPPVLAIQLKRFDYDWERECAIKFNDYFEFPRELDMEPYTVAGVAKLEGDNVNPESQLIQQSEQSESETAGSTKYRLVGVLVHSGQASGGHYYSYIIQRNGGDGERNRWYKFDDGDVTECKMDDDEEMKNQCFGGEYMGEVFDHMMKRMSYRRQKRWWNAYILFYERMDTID
Experimental: A series of chemical modifications were initiated to increase our structure activity relationship (SAR) analysis of inhibitors. […] The DNA was cloned into a ULP1-protease cleavable N-terminal His6-Smt3-fusion tag expression vector, derived from pET-28. Protein expression was induced at OD600 2.0, in TB media with Kanamycin overnight at 16° C. Cells were harvested and flash frozen before use. […] Protein was concentrated to roughly 20-40 mg/ml before aliquots were flash-frozen. All steps were performed in the presence of reducing agents, either BME, DTT, or TCEP.
Purified recombinant enzyme in buffer containing 2 mM DTT was buffer exchanged into 25 mM Tris-HCl, 50 mM NaCl and 1 mg/ml BSA using a spin column. […] IC50 values were estimated by integrating the slope of each reaction using GraphPad 6.
Two hundred and ten (210) novel chemical structures were screened for Usp9xCD inhibitory activity using this assay. […] Fluorescent scans were used to assess Usp9xCD inhibitory activity in this enzyme assay for all compounds of interest. Each assay was performed in duplicate and the linear region of each reaction curve was used to calculate IC50 values for Usp9xCD inhibition which are tabulated in Table 1.

[2] = system: Mcl-1, PARP; assay: Mcl-1 level and PARP cleavage in treated tumor cells; assay type: cell-based; conditions: Z138 lymphoma cells, 1.25, 2.5 and 5 μM, 4 hours
[3] = aqueous solubility; assay type: physicochemical
[4] = background statement; cited from earlier work
[5] = molecular target: Usp9x (Homo sapiens, UniProt Q93008); assay: DUB activity (HA-Ub vinyl-sulfone labelling) in lysates of treated intact cells; assay type: cell-based; parameters: endogenous in cells; host or cells: Z138 lymphoma, MM1.S/MM1.ST myeloma, primary PCL cells, A375 and vemurafenib-resistant A375 melanoma; conditions: Z138 lymphoma cells, 1.25, 2.5 and 5 μM, 4 hours
Chain of Usp9x (Q93008 whole entry): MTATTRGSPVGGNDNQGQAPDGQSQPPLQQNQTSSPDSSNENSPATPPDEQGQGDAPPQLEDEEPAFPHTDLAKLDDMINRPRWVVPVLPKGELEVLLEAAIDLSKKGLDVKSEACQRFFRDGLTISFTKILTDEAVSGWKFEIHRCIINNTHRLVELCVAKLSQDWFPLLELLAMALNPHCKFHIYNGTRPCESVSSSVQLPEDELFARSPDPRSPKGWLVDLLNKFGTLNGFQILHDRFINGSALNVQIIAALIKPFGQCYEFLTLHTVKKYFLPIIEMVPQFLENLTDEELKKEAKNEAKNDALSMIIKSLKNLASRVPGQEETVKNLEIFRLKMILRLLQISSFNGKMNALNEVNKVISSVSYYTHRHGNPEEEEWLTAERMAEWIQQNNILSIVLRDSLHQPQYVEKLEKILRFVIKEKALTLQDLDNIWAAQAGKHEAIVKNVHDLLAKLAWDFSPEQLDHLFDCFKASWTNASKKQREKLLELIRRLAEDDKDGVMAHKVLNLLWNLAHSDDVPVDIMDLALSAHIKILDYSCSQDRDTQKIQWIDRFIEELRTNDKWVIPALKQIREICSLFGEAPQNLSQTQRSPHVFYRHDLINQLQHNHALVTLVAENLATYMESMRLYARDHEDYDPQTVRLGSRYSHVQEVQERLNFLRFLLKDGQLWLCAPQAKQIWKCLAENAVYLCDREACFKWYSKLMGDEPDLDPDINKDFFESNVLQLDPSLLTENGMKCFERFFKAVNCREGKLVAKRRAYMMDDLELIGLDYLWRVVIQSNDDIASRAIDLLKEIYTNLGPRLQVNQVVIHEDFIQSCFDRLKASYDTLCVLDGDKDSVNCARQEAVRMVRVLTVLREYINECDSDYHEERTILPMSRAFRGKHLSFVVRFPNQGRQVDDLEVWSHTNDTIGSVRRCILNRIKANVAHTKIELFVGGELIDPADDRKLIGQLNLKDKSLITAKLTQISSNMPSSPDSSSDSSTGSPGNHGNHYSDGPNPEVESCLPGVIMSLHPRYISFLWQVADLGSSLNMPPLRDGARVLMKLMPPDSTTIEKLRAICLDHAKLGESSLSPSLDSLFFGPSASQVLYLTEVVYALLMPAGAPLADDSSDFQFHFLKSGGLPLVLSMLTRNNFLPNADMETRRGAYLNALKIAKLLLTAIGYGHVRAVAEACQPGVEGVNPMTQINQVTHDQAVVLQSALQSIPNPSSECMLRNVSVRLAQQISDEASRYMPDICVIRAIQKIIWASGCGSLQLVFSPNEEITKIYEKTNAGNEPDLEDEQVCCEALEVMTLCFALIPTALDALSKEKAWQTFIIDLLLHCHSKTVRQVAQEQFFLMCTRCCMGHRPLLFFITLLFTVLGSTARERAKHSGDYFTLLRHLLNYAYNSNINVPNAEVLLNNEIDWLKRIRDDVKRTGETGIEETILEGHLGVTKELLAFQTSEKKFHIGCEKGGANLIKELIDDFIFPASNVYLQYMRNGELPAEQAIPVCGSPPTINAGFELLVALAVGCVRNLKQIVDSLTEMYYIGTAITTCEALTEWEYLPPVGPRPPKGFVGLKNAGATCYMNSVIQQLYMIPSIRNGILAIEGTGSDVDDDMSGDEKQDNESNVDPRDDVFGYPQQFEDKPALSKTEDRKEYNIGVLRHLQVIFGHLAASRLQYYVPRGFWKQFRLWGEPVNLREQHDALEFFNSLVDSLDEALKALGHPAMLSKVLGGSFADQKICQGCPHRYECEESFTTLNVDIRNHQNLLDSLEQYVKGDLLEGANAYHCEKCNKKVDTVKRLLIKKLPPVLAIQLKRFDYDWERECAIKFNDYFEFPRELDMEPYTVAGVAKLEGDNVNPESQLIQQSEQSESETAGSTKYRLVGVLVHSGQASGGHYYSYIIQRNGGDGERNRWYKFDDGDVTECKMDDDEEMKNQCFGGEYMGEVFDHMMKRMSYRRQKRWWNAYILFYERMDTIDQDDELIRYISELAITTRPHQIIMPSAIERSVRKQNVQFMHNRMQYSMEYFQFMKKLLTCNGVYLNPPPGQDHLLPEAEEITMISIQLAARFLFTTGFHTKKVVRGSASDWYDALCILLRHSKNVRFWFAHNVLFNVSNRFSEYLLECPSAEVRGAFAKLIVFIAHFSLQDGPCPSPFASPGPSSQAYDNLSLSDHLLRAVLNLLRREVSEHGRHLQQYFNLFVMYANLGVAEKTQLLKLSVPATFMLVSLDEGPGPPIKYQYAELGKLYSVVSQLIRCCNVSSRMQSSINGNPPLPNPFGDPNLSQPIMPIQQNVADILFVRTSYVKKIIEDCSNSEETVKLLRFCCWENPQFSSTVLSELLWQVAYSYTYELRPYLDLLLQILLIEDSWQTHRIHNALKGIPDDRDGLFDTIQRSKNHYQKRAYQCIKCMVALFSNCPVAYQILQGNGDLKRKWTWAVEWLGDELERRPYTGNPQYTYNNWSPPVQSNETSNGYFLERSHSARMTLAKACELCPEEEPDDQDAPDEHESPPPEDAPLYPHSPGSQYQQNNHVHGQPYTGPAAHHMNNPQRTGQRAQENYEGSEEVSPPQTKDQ
Experimental: In brief, control and treated cells were lysed by sonication in DUB assay buffer [50 mM Tris-HCl (pH 7.5), 5 mM MgCl2, 250 mM sucrose, 1 mM PMSF, 1× Roche proteinase inhibitory cocktail] and 20 μg of protein from the supernatant fraction (after a 14,000×g spin) were incubated with 200 nM HA-Ub vinyl-sulfone (Boston Biochem) in a final volume of 20 μl. After 90 min at 37° C., reactions were stopped with the addition of 5×-sample buffer. DUB activity was detected by SDS-PAGE resolution of the protein followed by nitrocellulose membrane transfer and immunoblotting with anti-HA.
The time required for G9-mediated Usp9x inhibition in intact multiple myeloma (MM1.S) cells and primary tumor cells from a patient with plasma cell leukemia (PCL) was investigated. MM1.ST (FIG. 1, left) or PCL (FIG. 1, right) cells were treated with 5 μM of compound for the time indicated before Usp9x activity was assessed as described above.

[6] = system: vemurafenib sensitive and resistant A375 melanoma cells; assay: in vitro anti-tumor efficacy in A375 melanoma cells; assay type: cell-based; conditions: A375 cells, Usp5 knockdown
Source text: Similar results were obtained in A375R Usp5 KD cells treated with a MEK inhibitor.

Row | Compound | IC50 [1] | level of Mcl-1 [2] | solubility [3] | solubility [4] | Usp9x activity in intact cells [5] | reduction of the vemurafenib IC50 concentration by Usp5 KD [6]
1 | CCC[C@H](NC(=O)/C(C#N)=C/c1cccc(Br)n1)c1ccccc1 [WP1130, reference compound] | 4.8 µM | reduce the level of a downstream target of Usp9x | 2.6 µM (≈ 0.999 µg/mL) | poor solubility | able to inhibit Usp9x activity in intact cells | 
2 | CCCC(NC(=O)/C(C#N)=C/c1nc(Cl)ccc1Cl)c1ccc(OCCN2CCOCC2)cc1 (stereo not shown) [drawing 26] | 1.6 µM |  |  |  |  | 
3 | CCCS(=O)(=O)Nc1ccc(F)c(C(=O)c2c[nH]c3ncc(-c4ccc(Cl)cc4)cc23)c1F [vemurafenib, reference compound] |  |  |  |  |  | about 2 fold

From patent US9868736B2, “Deubiquitinase inhibitors and methods for use of the same” (THE REGENTS OF THE UNIVERSITY OF MICHIGAN, priority 2013, dated 2018)
